In patent EP3696281A1, “ARGINASE AS BIOMARKER AND DRUG TARGET FOR PCOS” (Johann Wolfgang Goethe-Universität Frankfurt am Main, priority 2019, dated 2020):

Assays:
arginase = assay: Arginase activity in platelets incubated with arginase inhibitor, then lysed (MAK112 kit); format: cell-based, human; details: 30 minutes, P<0.05
From the text: Levels of ornithine (A), arginine (B), and the ratio of ornithine to arginine (C) in plasma from healthy donors or from PCOS patients, n= 22 (Student's t test). (D) Arginase activity in plasma from healthy donors or from PCOS patients, n=16 (Student's t test). (E) Levels of arginase-i in plasma from healthy donors or from PCOS patients, n=16 (Student's t test). (F) Levels of arginase-i in plasma from healthy donors or from PCOS patients in the presence or in the absence of microparticles, n=16 (ANOVA and Newman-Keuls post-test). (G) Levels of platelet-derived microparticles (PMPs) in plasma from healthy donors or from PCOS patients, n=17 (Student's t test). (H) Levels of arginase-i measured by flow cytometry in PMPs from healthy donors and from PCOS patients, n=17. […]
Given that platelets are the main source of plasma arginase in PCOS patients, the effect of arginase inhibitor on platelet arginase activity and function was assessed. […]
Arginase activity was determined in plasma or in platelets using commercially available kits (MAK112, Sigma, Steinheim, Germany), according to manufacturer's instructions.

washed human platelets = assay: Aggregation of washed human platelets elicited by thrombin or U46619 (aggregometer); format: cell-based; details: 5 minutes; for effect of pre-treatment with arginase inhibitor on arginine-mediated inhibition of platelet aggregation: pre-incubation with inhibitor (Nor-NOHA 100 µmol/L, 30 minutes), then arginine 1 mmol/L, thrombin or U46619; for thrombin or thromboxane A2 analogue-induced aggregation of platelets: arginine 1 mmol/L, alone
From the text: Levels of ornithine (A), arginine (B), and the ratio of ornithine to arginine (C) in plasma from healthy donors or from PCOS patients, n= 22 (Student's t test). (D) Arginase activity in plasma from healthy donors or from PCOS patients, n=16 (Student's t test). (E) Levels of arginase-i in plasma from healthy donors or from PCOS patients, n=16 (Student's t test). (F) Levels of arginase-i in plasma from healthy donors or from PCOS patients in the presence or in the absence of microparticles, n=16 (ANOVA and Newman-Keuls post-test). (G) Levels of platelet-derived microparticles (PMPs) in plasma from healthy donors or from PCOS patients, n=17 (Student's t test). (H) Levels of arginase-i measured by flow cytometry in PMPs from healthy donors and from PCOS patients, n=17.
Human platelets were obtained by centrifugation (900g, 7 minutes) of platelet-rich plasma, as described. […] The resulting platelet-poor plasma was collected and frozen at -80°C for further evaluation.
Platelet aggregation. Aggregation of washed human platelets (4x10^8platelets/mL) was measured using an 8-channel aggregometer (PAP8, Mölab, Germany).

SMILES | arginase activity (arginase; platelets incubated with L-norvaline 10 mmol/L) | effect of pre-treatment with arginase inhibitor on arginine-mediated inhibition of platelet aggregation (washed human platelets; platelets from PCOS patients) | effect of pre-treatment with arginase inhibitor on arginine-mediated inhibition of platelet aggregation (washed human platelets; platelets from healthy donors) | thrombin or thromboxane A2 analogue-induced aggregation of platelets (washed human platelets; platelets from PCOS patients) | thrombin or thromboxane A2 analogue-induced aggregation of platelets (washed human platelets; platelets from healthy donors) | arginase activity (arginase; platelets incubated with nor-NOHA 100 µmol/L)
CCC[C@H](N)C(=O)O [L-norvaline] | significantly inhibited arginase activity | significantly revealed the inhibitory effects of arginine | did not have additional effect on arginine-mediated platelet inhibition | – | – | –
N=C(N)NCCC[C@H](N)C(=O)O [arginine] | – | – | – | did not affect the aggregation | inhibited thrombin or thromboxane A2 analogue-induced aggregation | –
N=C(NO)NCC[C@H](N)C(=O)O [NorNOHA, Nω-hydroxy-nor-L-arginine] | – | significantly revealed the inhibitory effects of arginine | did not have additional effect on arginine-mediated platelet inhibition | – | – | significantly inhibited arginase activity
